The text below walks through data of US20250345314A1 (PUSAN NATIONAL UNIVERSITY INDUSTRY-UNIVERSITY COOPERATION …, priority 2024, published 2025).

What all share (assay type): cell-based
Data set [1] relates to mesenchymal stem cells UCB #001, UCB #006, and UCB #192. Kind of data set: Cell viability of mesenchymal stem cells by CCK-8 assay. Here is the method: The effects of rapamycin on the survival rate of mesenchymal stem cells and the secretion of HGF and PGE2 were confirmed. Specifically, the mesenchymal stem cells UCB #001, UCB #006, and UCB #192 were treated with rapamycin at various concentrations of 1.25, 2.5, 5, 10, 20, 40, and 80 ng/ml for 24 hours.
(§1) The effects of pirfenidone, a drug used clinically as an anti-fibrotic drug, on the survival rate of mesenchymal stem cells and the secretion of HGF and PGE2 were confirmed in the same manner as rapamycin. The results of confirming the survival rate of mesenchymal stem cells according to pirfenidone treatment were shown in FIG. 3A, and the results of analyzing HGF and PGE2 secretion were shown in FIGS. 3B and 3C, respectively.
(Formazan colour is commonly taken as a measure of viable cells.)

Data set [2] has the same test system. Kind of data set: PGE2 secretion of mesenchymal stem cells by ELISA. Particulars: pirfenidone treatment. The procedure:
(§2) In addition, changes in HGF and PGE2 secretion in mesenchymal stem cells treated with rapamycin at various concentrations were analyzed by ELISA. The results of analyzing HGF and PGE2 secretion were shown in FIGS. 2B and 2C, respectively.
as §1
On the technique in general: In an ELISA, binding on a coated surface is turned into a signal by an enzyme label.

Data set [3] shares this test system. Kind of data set: HGF secretion of mesenchymal stem cells by ELISA. The procedure: as §2, §1

`Cc1ccc(=O)n(-c2ccccc2)c1` [pirfenidone]: the cell viability entry in data set [1] (UCB #001, pirfenidone 1 to 6 μg/ml, CCK-8) is “increased”; in data set [1] (UCB #006 and UCB #192, pirfenidone 1 to 10 μg/ml, CCK-8), “increased”. Further, in data set [1] (UCB #006 and UCB #192, CCK-8), the “concentration at which cytotoxicity was exhibited” value was at least 20000 ng/mL. The PGE2 secretion entry in data set [2] is reported as “no significant change”. In addition, the HGF secretion result is on record as “reduced” in data set [3] (pirfenidone 20 μg/ml) and “did not affect” in data set [3] (pirfenidone 4 to 10 μg/ml).

On to `CO[C@H]1C[C@@H]2CC[C@@H](C)[C@@](O)(O2)C(=O)C(=O)N2CCCC[C@H]2C(=O)O[C@H]([C@H](C)C[C@@H]2CC[C@@H](O)[C@H](OC)C2)CC(=O)[C@H](C)/C=C(\C)[C@@H](O)[C@@H](OC)C(=O)[C@H](C)C[C@H](C)/C=C/C=C/C=C/1C` [rapamycin], for which, in data set [1] (mesenchymal stem cells, 24 hours, CCK-8), the “concentration at which cytotoxicity was exhibited” value is at least 80 ng/mL.
